Source: patent US8426420B2, “Heterocyclic pyrazole-carboxamidesas P2Y12 antagonists” (Sanofi, priority 2007, dated 2013)

Legend:
[1] = molecular target: human P2Y12 receptor (Homo sapiens, UniProt Q9H244); assay: Human P2Y12 recombinant cell membrane binding assay with 33P 2MeS-ADP; settings: competition against 33P 2MeS-ADP, membranes of CHO cells with recombinant human P2Y12 receptor
How it was run: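 CHO membranes expressing human P2Y12 (20 μg/ml stock) preincubated 15 min at RT with compound in HEPES pH 7.4 buffer, then 33P 2MeS-ADP (1.61 nM working solution) added for 20 min at RT. Bound label filtered and counted; four-point, five-fold series from 10 μM final, triplicate, four-parameter fit.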

[2] = tested on: human platelet rich plasma; assay: Inhibition of human platelet aggregation, 96-well assay; type: cell-based; settings: Homo sapiens, Platelet, 20 min
How it was run: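 ADP-induced aggregation read as 650 nm absorbance every minute for 20 min at 37 °C, with shaking between reads. PRP (~3×E8 platelets/ml, diluted with PPP, ACD-A blood from healthy volunteers) was exposed to compound for 5 min before adding a 40 μM ADP stock (15 μl into 150 μl).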

[3] = tested on: human platelet rich plasma; assay: Inhibition of human platelet aggregation, "Born"-method using single cuvettes; type: cell-based; settings: 0.1 h, ADP-induced aggregation, 6 minutes

human P2Y12 receptor, sequence (Q9H244 whole entry): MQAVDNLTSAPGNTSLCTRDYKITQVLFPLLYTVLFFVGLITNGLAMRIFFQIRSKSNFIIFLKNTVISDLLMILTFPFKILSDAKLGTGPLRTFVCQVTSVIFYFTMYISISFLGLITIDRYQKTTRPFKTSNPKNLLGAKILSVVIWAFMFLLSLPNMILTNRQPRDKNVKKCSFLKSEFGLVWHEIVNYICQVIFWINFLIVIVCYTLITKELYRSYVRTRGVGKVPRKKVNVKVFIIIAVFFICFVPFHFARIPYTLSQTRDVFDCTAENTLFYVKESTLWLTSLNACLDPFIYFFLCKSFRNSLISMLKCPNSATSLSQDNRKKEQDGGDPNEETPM

SMILES: CCCCOC(=O)N1CCN(C(=O)[C@H](CC)NC(=O)c2cc(OCC(=O)N3CCC[C@H]3C(=O)NC3CCC3)n(-c3ccccc3)n2)CC1 [Example 233, 4-[(S)-2-({5-[2-((S)-2-Cyclobutylcarbamoyl-pyrrolidin-1-yl)-2-oxo-ethoxy]-1-phenyl-1H-pyrazole-3-carbonyl}-amino)-butyryl]-piperazine-1-carboxylic acid butyl ester]
- IC50 [1]: 21 nM
- IC50 [2]: 200 nM
- IC50 [3]: 60 nM
